Experimental data published in patent US7649089B2, “Biodegradable oxidized cellulose esters and their uses as microspheres” (University of Iowa Research Foundation, priority 2001, dated 2010).
Values after ≈ are worked out from the molar mass of the structure shown.

Tests used:
[1] = Solubility of 5-fluorouracil in pH 7.4 phosphate buffer saline; format: physicochemical; details: aqueous buffer, pH 7.4 PBS, read-out: solubility in pH 7.4 phosphate buffer saline solution
[2] = Release studies of CPT microspheres in pH 7.4 PBS at 37 C, sink condition; format: physicochemical; details: free drug
Method: OCA was prepared from oxidized (OC, COOH content 14% w/w) by treatment with a mixture of Ac2O/HOAC/H2SO4. The preparation of OCAM was achieved from a reaction between OCA and methanol using dicyclohexylcarbodiimide and 4,4′-dimethylaminopyridine as the catalysts. OCA and OCAM microspheres containing CPT were prepared by the emulsion/solvent evaporation method using the CH2Cl2—CH3OH mixture as a solvent and polyvinyl alcohol as an emulsifier. Microspheres were characterized by IR, scanning electron and confocal microscopes, and powder X-ray diffractometry. Dissolution studies were performed in pH 7.4 phosphate buffer-saline (PBS) at 37° C.
The release studies were performed under the sink condition in pH 7.4 PBS buffer at 37.0±0.2° C. At predetermined time intervals, 5.0 ml of the release medium was withdrawn. This was immediately replaced with an equal volume of the fresh PBS solution. The removed release medium was appropriated diluted with the mobile phase and analyzed by HPLC.

| solubility [1] [mg/mL] | Structure (SMILES) | time to dissolve [2] |
| --- | --- | --- |
| 14.9 (≈ 114 mM) | O=c1[nH]cc(F)c(=O)[nH]1 [5-fluorouracil] |  |
|  | CC[C@@]1(O)C(=O)OCc2c1cc1n(c2=O)Cc2cc3ccccc3nc2-1 [free CPT, camptothecin] | about 48 hours |
